According to patent publication US10975087B2, “Solid forms of tetrahydropyranyl amino-pyrrolopyrimidinone compounds” (ArQule, Inc., priority 2018, dated 2021):
Converted amounts (≈) assume the structure as drawn.

Key:
Assay type in all cases: physicochemical
Competitive slurrying = conditions: ca. 48 hours; for Form (competitive slurrying result): XRPD; for form observed after competitive slurrying (XRPD): ambient and 50° C., acetone, ethanol, acetonitrile
Protocol: Approximately 5 mg of each form (Form 1 and Form 4, Form 1 and Form 8, and Form 4 and Form 8) was weighed and agitated at ambient and 50° C. in minimal acetone, ethanol, diisopropyl ether (DIPE) and acetonitrile. Approximately 8 drops of each solvent was added and the samples were then agitated for ca. 48 hours, before being analyzed by XRPD. Table 9 details the conditions.

[1] = Thermodynamic solubility pH measurements; conditions: for Solubility (mg/mL) / Solubility: 48 hours
Protocol: After 2 hours at 25° C., the pH of each slurry was measured and the pH was adjusted, where required. After 24 hours at 25° C., the pH of each slurry was measured and the pH was adjusted, where required. After 48 hours at 25° C., the slurries were separated by centrifugation. The solids were analyzed by XRPD, while the pH of the separated liquors were also measured.

[2] = Gravimetric vapor sorption (GVS); conditions: for Post-GVS analysis (form): after exposure to elevated humidity; for XRPD post GVS: cell wraps: Remained | unchanged; for GVS (hygroscopicity): summary Table 11
Protocol: Approximately 10-20 mg of sample was placed into a mesh vapor sorption balance pan and loaded into an IGASorp Moisture Sorption Analyzer balance by Hiden Analytical. The sample was subjected to a ramping profile from 40-90% relative humidity (RH) at 10% increments, maintaining the sample at each step until a stable weight had been achieved (98% step completion). After completion of the sorption cycle, the sample was dried using the same procedure to 0% RH, and finally taken back to the starting point of 40% RH. Two cycles were performed. The weight change during the sorption/desorption cycles were plotted, allowing for the hygroscopic nature of the sample to be determined.

Aqueous solubility = conditions: for Solubility (mg/mL): Water; for Form: XRPD of damp solid after slurrying in Water, AXRPD: Amorphous by XRPD, but limited material for analysis; for XRPD post aqueous solubility: amorphous: Form 1 from solubility screen, Form 8: Amorphous, limited material
Protocol: (§1) Aqueous and acetone solubility was carried out using 3-10 mg of material, depending on availability, and slurrying in 150-200 μL of acetone or 300 μL of deionized water. The samples were agitated at ambient temperature then filtered by centrifugation (0.22 μm nylon filter) after ca. 24 hours and the solids analyzed by XRPD as damp solids. The filtrates were analyzed by HPLC for concentration determination. The water solubility was too low for detection using the current analytical method.

Acetone solubility = conditions: for Form: XRPD of damp solid after slurrying in Acetone, *Small amount of material analyzed; for Acetone solubility: residual solid: form of residual solid, amorphous input: Form 2 residual solid with additional peaks; for Acetone solubility: summary Table 11
Protocol: as §1

[3] = 7 day stability testing, open vials at 40° C./75% RH, ambient and 80° C.; conditions: for Purity after 1 week (%) / area % purity and form changes after 1 week: open vials; for T = 0 purity (%): T = 0, before storage; for area % purity and form changes after 1 week: ambient, 40° C./75% RH and 80° C.
[4] = ambient temperature, ca. 24 hours
[5] = deionized water, ambient temperature, ca. 24 hours
[6] = summary Table 11, HPLC of filtrate
[7] = acetone, ambient temperature, ca. 24 hours

## O=C(c1ccc(Oc2ccccc2)cc1Cl)c1c[nH]c2ncnc(N[C@@H]3CC[C@@H](CO)OC3)c12 [1 and 4]
Competitive slurrying; DIPE, 50° C.
  Form (competitive slurrying result): Form 1
Competitive slurrying; Ethanol, 50° C.
  Form (competitive slurrying result): Form 1
Competitive slurrying; Ethanol, Ambient
  Form (competitive slurrying result): Form 1

## O=C(c1ccc(Oc2ccccc2)cc1Cl)c1c[nH]c2ncnc(N[C@@H]3CC[C@@H](CO)OC3)c12 [1 and 8]
Competitive slurrying; DIPE, 50° C.
  Form (competitive slurrying result): Form 1
Competitive slurrying; Ethanol, 50° C.
  Form (competitive slurrying result): Form 1
Competitive slurrying; Ethanol, Ambient
  Form (competitive slurrying result): Form 1

## O=C(c1ccc(Oc2ccccc2)cc1Cl)c1c[nH]c2ncnc(N[C@@H]3CC[C@@H](CO)OC3)c12 [4 and 8]
Competitive slurrying; DIPE, 50° C.
  Form (competitive slurrying result): Form 4
Competitive slurrying; Ethanol, 50° C.
  Form (competitive slurrying result): Form 1
Competitive slurrying; Ethanol, Ambient
  Form (competitive slurrying result): Form 1

## O=C(c1ccc(Oc2ccccc2)cc1Cl)c1c[nH]c2ncnc(N[C@@H]3CC[C@@H](CO)OC3)c12.O=S(=O)(O)CCS(=O)(=O)O [Edisylate Pattern 1]
[1]; Input Solvent Water
  pH - 2 Hours at 25° C.: 2.32
  pH - 24 Hours at 25° C.: 2.18
  pH - 48 Hours at 25° C.: 2.37
[1]; Input Solvent Water, 25° C.
  Solubility (mg/mL): <LOD
[1]; Input Solvent pH 1
  pH - 2 Hours at 25° C.: 0.17
  pH - 24 Hours at 25° C.: 0.70
  pH - 48 Hours at 25° C.: 1.11
[1]; Input Solvent pH 1, 25° C.
  Solubility: 0.7 mg/mL
[1]; Input Solvent pH 4.5
  pH - 2 Hours at 25° C.: 4.40
  pH - 24 Hours at 25° C.: 4.29
  pH - 48 Hours at 25° C.: 4.22
[1]; Input Solvent pH 4.5, 25° C.
  Solubility (mg/mL): <LOD
[1]; Input Solvent pH 6.5
  pH - 2 Hours at 25° C.: 6.44
  pH - 24 Hours at 25° C.: 6.03
  pH - 48 Hours at 25° C.: 5.68
[1]; Input Solvent pH 6.5, 25° C.
  Solubility: <0.1 mg/mL

## O=C(c1ccc(Oc2ccccc2)cc1Cl)c1c[nH]c2ncnc(N[C@@H]3CC[C@@H](CO)OC3)c12 [Form 1 and Form 4]
Competitive slurrying; DIPE
  form observed after competitive slurrying (XRPD): Form 1 was the dominant form

## O=C(c1ccc(Oc2ccccc2)cc1Cl)c1c[nH]c2ncnc(N[C@@H]3CC[C@@H](CO)OC3)c12 [Form 1 and Form 8]
Competitive slurrying; DIPE
  form observed after competitive slurrying (XRPD): Form 1 was the dominant form

## O=C(c1ccc(Oc2ccccc2)cc1Cl)c1c[nH]c2ncnc(N[C@@H]3CC[C@@H](CO)OC3)c12 [Form 4 and Form 8]
Competitive slurrying; DIPE
  form observed after competitive slurrying (XRPD): Form 1 and Form 2 mixtures, pure Form 1, pure Form 4 and pure Form 2

## O=C(c1ccc(Oc2ccccc2)cc1Cl)c1c[nH]c2ncnc(N[C@@H]3CC[C@@H](CO)OC3)c12 [Form 4, (2-chloro-4-phenoxyphenyl)(4-(((3R,6S)-6-(hydroxymethyl)tetrahydro-2H-pyran-3-yl)amino)-7H-pyrrolo[2,3-d]pyrimidin-5-yl)methanone]
[2]
  hygroscopic nature by GVS: non-hygroscopic
  Post-GVS analysis (form): remain Form 4
  XRPD post GVS: Remained
  GVS (hygroscopicity): 0.4% uptake
[2]; at 90% RH
  uptake by GVS: 0.4%
Aqueous solubility; [4]
  Solubility (mg/mL): API not detected
Aqueous solubility
  Form: Form 4
  XRPD post aqueous solubility: Form 4
Aqueous solubility; [5]
  aqueous solubility: not soluble
Aqueous solubility; [6]
  aqueous solubility: API not detected
Acetone solubility
  Form: Form 1
  Acetone solubility: residual solid: (Form 1 residual
  Acetone solubility: 15.1 mg/mL
Acetone solubility; [7]
  Solubility: 15.1 mg/mL (≈ 31.5 mM)
  solid form after slurrying in acetone (XRPD): converted to the Form 1 polymorph
[3]; 40° C./75% RH
  Purity after 1 week (%): 98.9%
[3]; 80° C.
  Purity after 1 week (%): 98.9%
[3]; Ambient
  Purity after 1 week (%): 98.9%
[3]
  T = 0 purity (%): 98.8%
  area % purity and form changes after 1 week: no decrease in area % purity or form changes
[3]; cell wraps: No drop in purity or change in form
  Stability testing: No drop in purity

## O=C(c1ccc(Oc2ccccc2)cc1Cl)c1c[nH]c2ncnc(N[C@@H]3CC[C@@H](CO)OC3)c12 [Form 8, (2-chloro-4-phenoxyphenyl)(4-(((3R,6S)-6-(hydroxymethyl)tetrahydro-2H-pyran-3-yl)amino)-7H-pyrrolo[2,3-d]pyrimidin-5-yl)methanone]
[2]
  hygroscopic nature by GVS: non-hygroscopic
  Post-GVS analysis (form): remain Form 8
  XRPD post GVS: Remained
  GVS (hygroscopicity): 0.8% uptake
[2]; at 90% RH, first cycle
  uptake by GVS, first cycle: < 0.3%
[2]; at 90% RH, second cycle
  uptake by GVS, second cycle: 0.8%
Aqueous solubility; [4]
  Solubility (mg/mL): API not detected
Aqueous solubility
  Form: AXRPD
  XRPD post aqueous solubility: Amorphous,
Aqueous solubility; [5]
  aqueous solubility: not soluble
Aqueous solubility; [6]
  aqueous solubility: API not detected
Acetone solubility
  Form: Form 2*
  Acetone solubility: residual solid: (Form 2 residual
  Acetone solubility: 11.5 mg/mL
Acetone solubility; [7]
  solid form after slurrying in acetone (XRPD): conversion to Form 2
Acetone solubility; acetone, organic solvent or mixture, thermodynamic from solid, Acetone, ambient temperature, ca. 24 hours, read-out: Solubility
  solubility at 24 h: 11.5 mg/mL (≈ 24 mM)
[3]; 40° C./75% RH
  Purity after 1 week (%): 99.0%
[3]; 80° C.
  Purity after 1 week (%): 99.0%
[3]; Ambient
  Purity after 1 week (%): 99.0%
[3]
  T = 0 purity (%): 99.0%
  area % purity and form changes after 1 week: no decrease in area % purity or form changes

## O=C(c1ccc(Oc2ccccc2)cc1Cl)c1c[nH]c2ncnc(N[C@@H]3CC[C@@H](CO)OC3)c12 [Form 11, (2-chloro-4-phenoxyphenyl)(4-(((3R,6S)-6-(hydroxymethyl)tetrahydro-2H-pyran-3-yl)amino)-7H-pyrrolo[2,3-d]pyrimidin-5-yl)methanone]
[2]
  hygroscopic nature by GVS: non-hygroscopic
